Test results reported in patent US20120003270A1, “6-SUBSTITUTED ISOFLAVONOID COMPOUNDS AND USES THEREOF” (priority 2008, published 2012).

How the values were obtained:
[1] = Pharmacokinetics after a single oral dose in mice; assay type: in vivo, mouse; settings: urine, oral 25 mg/kg; for AUC: mouse
PGE2 [2] = assay: PGE2 synthesis in RA-stimulated U937 cells; assay type: cell-based, human; settings: A23187 0.5 μM, 30 min
Description: U937 cells were thawed and resuspended in RPMI and 10% FCS at 2×10^5 cells per ml. The cells were incubated in 5% CO2 at 37° C. and expanded in growing culture to at least 6.4×10^7 total cells. The cells were then resuspended in fresh medium and cultured with 5 μM retinoic acid (RA) at 2×10^5 cells per ml for a further 3 days (72 h). RA treated cells were washed 2× in serum-free RPMI and resuspended in serum-free medium at 5×10^6 cells per ml. The cells were aliquotted into Teflon tubes at 1 ml per tube. Working stock solutions of compounds (1) and (3) were prepared at 0.1 mM, 1 mM and 10 mM as described above. For each working dilution, 10 μl was added to 1 ml cells to achieve a final concentration of 0 (DMSO alone), 1, 10, and 100 μM for each test compound. Cells were incubated in triplicate with each concentration of test compound for 15 min at 37° C. After 15 min pre-incubation, each 1 ml tube of cells received 5 μl of a […] solution of the calcium ionophore A23187 (to achieve 0.5 μM A23187). Incubation at 37° C. was continued for a further 30 min. After incubation, supernatants were collected by centrifugation at 2000 rpm for 10 min and stored at −20° C. until required for assay.

PGE2 [3] = assay: PGE2 synthesis in RAW 264.7 (ELISA); assay type: cell-based, mouse; settings: LPS 50 ng/ml, 16 hrs
Description: The mouse macrophage cell line RAW 264.7 was cultured in DMEM supplemented with foetal calf serum (FCS), 2 mM glutamine and 50 U/ml penicillin/streptomycin. Cells were treated with either test compounds (in 0.025% DMSO) or vehicle alone, and added one hour before 50 ng/ml LPS. After incubation for 16 hrs, culture media was collected for PGE2 or TXB2 measurement by ELISA (Cayman Chemical), and TNFα measurement using an ELISA (Becton Dickinson).

[4] = Pharmacokinetics after a single oral dose in mice; assay type: in vivo, mouse; settings: serum; for half-life / AUC: mouse; for half-life: oral, 25 mg/kg, unconjugated, one phase exponential decay, read-out: t1/2 (free); for AUC: oral 25 mg/kg in PEG 400/PBS 1:1; for AUCfree/AUCtotal / [max]free (μM, mean ± SD): oral 25 mg/kg
Description: The pharmacokinetic (PK) profiles of compounds (1) and (3) were examined following oral administration in PEG 400/PBS 1:1 at a dose of 25 mg/kg. For each experiment, three animals were allocated per time point (15 min, 30 min, 60 min, 90 min, 4 hr and 24 hr). Mice were killed using cervical dislocation and serum collected via cardiac puncture. Faeces and urine, where available, were also collected. Samples were stored at −80° C. and analysed by LC-MS in-house. The limit of detection was 20 ng/ml.
In Table 23 (and Table 24), “AUC” represents the area under the serum concentration versus time curve, expressed as μM*hour/L. This number assesses absorption and clearance in a relative way. The higher the number, the more compound has been absorbed and the longer it has remained in circulation. “AUCfree” refers to the area under the curve for unconjugated or free analogue, whereas “AUCtotal” refers to the area under the curve for the free and conjugated analogue combined.
“[max]” refers to the maximum concentration observed in serum. These measurements also give some understanding of how well a compound is absorbed.
The ratio of the AUCfree to the AUCtotal gives a relative measure of how much of the administered compound i.e. ‘free’ remains either in circulation compared to how much of the compound is conjugated.
“t1/2” is the half life, i.e. the time taken for the serum concentration to fall by half. The elimination of a drug is usually an exponential (logarithmic) process, so that a constant proportion is eliminated per unit time. […] The first refers to the t1/2 of the unconjugated analogue and the second the t1/2 of the total (free plus conjugated) analogue.

HCAECs = assay: HCAEC cell viability; assay type: cell-based, human; settings: 10 μM, 24 hr incubation
red blood cells (RBC) = assay: Peroxyl radical (AAPH)-induced red blood cell lysis; assay type: cell-based; settings: test compounds at 1 μM; AAPH 150 mM; vehicle 40.0
Description: Freshly collected heparinised venous blood (10 ml, on ice) was aliquotted into 1.8 ml sterile eppendorf tubes and centrifuged for 10 minutes at 2600 rpm at 4° C. Plasma and buffy coat layers were removed (approximately 900 μl) and packed red blood cells (RBC) were then washed by the addition of 900 μl of sterile, ice cold PBS. This washing procedure was repeated twice. Packed RBC were resuspended by the addition of 900 μl of ice-cold, sterile PBS (and termed RBC stock). RBC stocks were stored at 4° C. for a maximum of three days. All working suspensions of RBC were prepared fresh daily by diluting 200 μl of RBC stock into 10 ml of ice-cold, sterile PBS and 50 μl added to each well.
Stocks of AAPH were freshly prepared for individual experiments as follows. […] Turbidity of RBC suspensions were monitored using a Tecan microplate reader at 690 nm (37° C.) with gentle vortexing. Assays were performed in quadruplicate and readings were taken every 5 minutes over 5 hours. RBC lysis curves were constructed by plotting absorbance (mean of 4 readings) against time. Time to half-lysis was calculated by taking the highest absorbance reading (no lysis) and the lowest absorbance reading (maximum lysis). The sum of these two readings divided by two gave the absorbance at half-lysis. Simple regression analysis was used to calculate the time at which half-lysis absorbance occurred.

Row | Compound | AUC [1] [µM·h] | [max]free (μM, mean ± SD) [1] [µM] | PGE2 (PGE2 [2]; 1 μM) [pg] | PGE2 (PGE2 [2]; 10 μM) [pg] | PGE2 (PGE2 [2]; 100 μM) [pg] | PGE2 (PGE2 [3]; 1 μM) [pg/mL] | PGE2 (PGE2 [3]; 10 μM) [pg/mL] | half-life [4] [min] | AUC [4] [µM·h] | AUCfree/AUCtotal [4] [%] | [max]free (μM, mean ± SD) [4] [µM] | Cell viability (HCAECs) | Time taken to reach half-lysis, time (red blood cells (RBC)) [min]
1 | CN(C)Cc1cc2c(cc1O)OCC(c1ccc(O)cc1)=C2 [Compound (1)] | 9.3 | 5.6 ± 6.7 | 1.485 ± 0.175 | 1.58 ± 0.145 | 0.881 ± 0.116 | 2601.37 ± 153.53 | 847.96 ± 144.83 | 9 | 0.127 | 33 | 0.13 ± 0.1 | cell viability was unaffected | 154.6
2 | O=C(O)C1CCCN1Cc1cc2c(cc1O)OCC(c1ccc(O)cc1)=C2 (centres unmarked) [Compound (3)] | 34 | 3.9 ± 2.4 | 1.025 ± 0.114 | 1.271 ± 0.212 | 1.39 ± 0.227 | 2890.02 ± 320.91 | 2031.43 ± 261.59 | 28 | 0.108 | 12 | 0.03 ± 0.01 | cell viability was unaffected | 88.6
